From US12194158B2, “Oromucosal nanofiber carriers for therapeutic treatment” (Instar Technologies A.S., priority 2016, dated 2025)
Counter-ions that a name gives are not always drawn. Values belong to the molecule of their own block, whether it stands above or below them.

Key:
[1] = acidic stomach pH; cited from earlier work
[2] = In vitro transmucosal permeation of liraglutide through porcine sublingual mucosa (Franz diffusion cell); format: in vitro ADME; settings: from nanofibre carrier
Description: The liraglutide containing nanofibre carrier samples or the reference solution samples were applied onto fresh porcine sublingual mucosa of thickness ca 0.4 mm fixed in a Franz diffusion cell. An exposed mucosal area for permeation was 1.0 cm^2, and the stirred acceptor phase was phosphate buffer pH 7.4 tempered at 37°±0.5° C. Both the tested solutions (Victoza pre-filled pen for subcutaneous injection, 6 mg/mL and the liraglutide solution in buffer pH 6.80, 0.4 mg/mL) were applied onto the sublingual membrane in 400 μL volume. Donor nanofibre samples contained 0.5 mg of liraglutide in the form of a multilayered nanofibre disc and were suffused in donor space with 400 μL of buffer pH 6.80 or 8.15, respectively.
Determination of liraglutide was performed on an Agilent 1200 instrument. The parameters were as follows: Column Poroshell 120 EC-C18 (4.6×150 mm, particle size: 5.0 μm) was thermostated at 35° C. Samples were kept at 10° C., injection 5.00 μL. Mobile Phase A: Na2HPO4 (pH 7.75):ACN (85:15) was mixed with Mobile Phase B: ACN in gradient and pumped at speed 1.200 mL/min. Detector wavelength: 215 nm. Resulting liraglutide retention time was ca 3.4 min.

[3] = after oral administration; cited from earlier work

Structure (SMILES): CCCCCCOC(=O)NC(=N)c1ccc(NCc2nc3cc(C(=O)N(CCC(=O)OCC)c4ccccn4)ccc3n2C)cc1 [DG, Dabigatran ethexylate mesylate]
solubility [1]: very good

duration of further sublingual permeation in vitro [2]: about 1 hour
transmucosal permeation through the sublingual membrane ([2]; FIG. 5): able to permeate transmucosally
Structure (SMILES): CCCCCCCCCCCCCCCC(=O)N[C@@H](CCC(=O)NCCCC[C@H](NC(=O)[C@H](C)NC(=O)[C@H](C)NC(=O)[C@H](CCC(N)=O)NC(=O)CNC(=O)[C@H](CCC(=O)O)NC(=O)[C@H](CC(C)C)NC(=O)[C@H](Cc1ccc(O)cc1)NC(=O)[C@H](CO)NC(=O)[C@H](CO)NC(=O)[C@@H](NC(=O)[C@H](CC(=O)O)NC(=O)[C@H](CO)NC(=O)[C@@H](NC(=O)[C@H](Cc1ccccc1)NC(=O)[C@@H](NC(=O)CNC(=O)[C@H](CCC(=O)O)NC(=O)[C@H](C)NC(=O)[C@@H](N)Cc1cnc[nH]1)[C@@H](C)O)[C@@H](C)O)C(C)C)C(=O)N[C@@H](CCC(=O)O)C(=O)N[C@@H](Cc1ccccc1)C(=O)N[C@H](C(=O)N[C@@H](C)C(=O)N[C@@H](Cc1c[nH]c2ccccc12)C(=O)N[C@@H](CC(C)C)C(=O)N[C@H](C(=O)N[C@@H](CCCNC(=N)N)C(=O)NCC(=O)N[C@@H](CCCNC(=N)N)C(=O)NCC(=O)O)C(C)C)[C@@H](C)CC)C(=O)O [Liraglutide]

Structure (SMILES): CNS(=O)(=O)Cc1ccc2[nH]cc(CCN(C)C)c2c1 [sumatriptan]
oral bioavailability [3]: 15%
